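Each compound was tested at five concentrations against cells in 96-well plates for 48 hours. TGI: concentration producing complete growth inhibition.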
Legend:
Assay in all cases: NCI-60 cell line screen, 48 h
786-0 renal = system: 786-0 renal
A498 renal = system: A498 renal
A549 NSCLC = system: A549 NSCLC
ACHN renal = system: ACHN renal
BT-549 breast = system: BT-549 breast
CAKI-1 renal = system: CAKI-1 renal
CCRF-CEM leukemia = system: CCRF-CEM leukemia
COLO 205 colon = system: COLO 205 colon
DU-145 prostate = system: DU-145 prostate
EKVX NSCLC = system: EKVX NSCLC
HCC-2998 colon = system: HCC-2998 colon
HCT-116 colon = system: HCT-116 colon
HCT-15 colon = system: HCT-15 colon
HL-60(TB) leukemia = system: HL-60(TB) leukemia
HOP-62 NSCLC = system: HOP-62 NSCLC
HOP-92 NSCLC = system: HOP-92 NSCLC
HS 578T breast = system: HS 578T breast
HT29 colon = system: HT29 colon
IGROV1 ovarian = system: IGROV1 ovarian
K-562 leukemia = system: K-562 leukemia
KM12 colon = system: KM12 colon
LOX IMVI melanoma = system: LOX IMVI melanoma
M14 melanoma = system: M14 melanoma
MALME-3M melanoma = system: MALME-3M melanoma
MCF7 breast = system: MCF7 breast
MDA-MB-231 breast = system: MDA-MB-231 breast
MDA-MB-435 = system: MDA-MB-435
MDA-N = system: MDA-N
MOLT-4 leukemia = system: MOLT-4 leukemia
NCI-H226 lung = system: NCI-H226 lung
NCI-H23 lung = system: NCI-H23 lung
NCI-H460 lung = system: NCI-H460 lung
NCI-H522 lung = system: NCI-H522 lung
NCI/ADR-RES ovarian = system: NCI/ADR-RES ovarian
OVCAR-3 ovarian = system: OVCAR-3 ovarian
OVCAR-4 ovarian = system: OVCAR-4 ovarian
OVCAR-5 ovarian = system: OVCAR-5 ovarian
OVCAR-8 ovarian = system: OVCAR-8 ovarian
PC-3 prostate = system: PC-3 prostate
RPMI-8226 leukemia = system: RPMI-8226 leukemia
RXF 393 renal = system: RXF 393 renal
SF-268 CNS = system: SF-268 CNS
SF-295 CNS = system: SF-295 CNS
SF-539 CNS = system: SF-539 CNS
SK-MEL-2 melanoma = system: SK-MEL-2 melanoma
SK-MEL-28 melanoma = system: SK-MEL-28 melanoma
SK-MEL-5 melanoma = system: SK-MEL-5 melanoma
SK-OV-3 ovarian = system: SK-OV-3 ovarian
SN12C renal = system: SN12C renal
SNB-19 CNS = system: SNB-19 CNS
SNB-75 CNS = system: SNB-75 CNS
SR leukemia = system: SR leukemia
SW-620 colon = system: SW-620 colon
T-47D breast = system: T-47D breast
TK-10 renal = system: TK-10 renal
U251 CNS = system: U251 CNS
UACC-257 melanoma = system: UACC-257 melanoma
UACC-62 melanoma = system: UACC-62 melanoma
UO-31 renal = system: UO-31 renal

Measured: TGI

Cc1cccc(C)c1NC(=O)Nc1ccc(S(N)(=O)=O)cc1
> 100 µM: all assays above
